The values below are quoted from earlier work in patent publication US8632826B2, “Cosmetic wrinkle treatment method based on a zanthoxylum bungeanum extract” (Indena S.p.A., priority 2009, dated 2014).

The data set relates to thrombosis.

`COc1ccc2c(c[n+](C)c3c4cc5c(cc4ccc23)OCO5)c1OC` [chelcrythrine]: the “activity in the prevention of thrombosis” value is “active in the prevention of thrombosis”.
